The values that follow are results of earlier work, collected in paper PMC4130638, “Structure of a Stapled Peptide Antagonist Bound to Nutlin-Resistant Mdm2” (PLoS ONE, 2014).

Entries after “also recorded” stand apart in the source; their conditions may differ.

Data set [1] deals with Mdm2 Q24R (N-terminal domain). As to conditions: Q24R mutation in N-terminal domain of Mdm2.
The test system of data set [2] is Mdm2 M62A (N-terminal domain). As to conditions: M62A mutation in N-terminal domain of Mdm2.

Turning to Nutlin-3a, the “binding affinity for Mdm2 Q24R” value in data set [1] is recorded as “selectively reducing affinity for Nutlin but not p53”. The “binding affinity for Mdm2 M62A” value in data set [2] is “precludes binding of Nutlin, but not p53; also recorded: selectively reducing affinity for Nutlin but not p53; also recorded: significantly impairing binding”.
